Bounds are passed on as bounds.

Format in all cases: cell-based
Assay [1] has as its target T1, EML4-ALK-BaF3 (Homo sapiens, UniProt Q9UM73).
T1 construct: expressed in transfected cells; host or cells: Ba/F3 cells; the other entry of the earlier key: EML4 (Q9HC35, Echinoderm microtubule-associated protein-like 4)
Description: Growth inhibition of EML4-ALK transformed BaF3 cells (MTS). To be noted: for IC50: EML4-ALK-BaF3 cells, 48 hours, MTS, Table 12. On the procedure:
(§1) If compounds can inhibit the activity of ALK kinase or the activity of ALK signaling pathway, they can inhibit the growth of ALK transformed Ba/F3 cells. […] The broad-spectrum toxicity of compounds can be evaluated by determining the effect of the compounds on the growth of wild type BaF3 cells.
(§2) 1) Medium: DMEM (Dulbecco's modified eagle medium) or RPMI1640 (containing 10% fetal bovine serum, 100 μg/mL ampicillin, 100 μg/mL streptomycin).)
(§3) Reagents: MTS solution (2 mg/mL MTS (3-(4,5-dimethylthiazol-2-yl)-5-(3-carboxymethoxyphenyl)-2-(4-sulfophenyl)-2H-tetrazolium, inner salt); 100 μg/mL PES ([…])).
(§4) 3) Test of compound: Transformed Ba/F3 cells (EML4-ALK-BaF3, EML4-ALK(L1196M)-BaF3, NPM-ALK-BaF3) (2×10^4/well) were distributed into 96-well plates, with volume of cell sap of 90 μL, 10 μL of compounds in gradient concentration (the highest concentration 10 was μM, followed by 1/3 step by step dilution, a total of 8 concentrations were set, the system contained 0.1% DMSO (dimethyl sulfoxide)). The cell plates mixed with compounds were cultured in a cell incubator (37° C.; 5% CO2) for 48 hours, and the added 20 μL of MTS reaction solution, mixed and incubated in cell incubator (37° C.; 5% CO2) for 1-4 hours. The OD value at a wavelength of 490 nm was measured using eliasa (VARIOSKAN FLASH, Thermo). Three parallels were set up for each group, with a final concentration of 0.1% DMSO as negative control, and with medium without cells and compounds as blank control.
(§5) 4) Calculation of IC50 value: the semi inhibitory concentration of the compound acting on the cells was calculated using GradPad Prism 5 software according to the cell inhibitory rate measured.

The target in assay [2] is T2, EML4-ALK (L1196M)-BaF3 (Homo sapiens, UniProt Q9UM73, L1196M).
T2 construct: expressed in transfected cells; host or cells: Ba/F3 cells; the other entry of the earlier key: EML4 (Q9HC35, Echinoderm microtubule-associated protein-like 4)
The assay can be described thus: Growth inhibition of EML4-ALK (L1196M) transformed BaF3 cells (MTS). To be noted: 48 hours, Table 12, read-out: L1196M (IC50 nM). On the procedure: as §1, §2, §3, §4, §5

Assay [3] has as its target T3, NPM-ALK-BaF3 (Homo sapiens, UniProt Q9UM73).
T3 construct: expressed in transfected cells; host or cells: Ba/F3 cells; the other entry of the earlier key: NPM1 (P06748, Nucleophosmin)
The assay can be described thus: Growth inhibition of NPM-ALK transformed BaF3 cells (MTS). As to conditions: 48 hours, Table 12. The procedure: (§6) The activity of compounds against ALK kinase was evaluated by inhibiting the growth of cellular ALK kinase EML4-ALK-BaF3, EML4-ALK (L1196M)-BaF3, NPM-ALK-BaF3, and wild type BaF3 (Proc. Natl. Acad. Sci. USA., 2006, 103, 3153-8.) The growth of cellular ALK kinase EML4-ALK-BaF3, EML4-ALK(L1196M)-BaF3, and NPM-ALK-BaF3 depends on their kinase activity. If compounds can inhibit the activity of ALK kinase or the activity of ALK signaling pathway, they can inhibit the growth of ALK transformed Ba/F3 cells. […] The broad-spectrum toxicity of compounds can be evaluated by determining the effect of the compounds on the growth of wild type BaF3 cells.
as §2, §3
as §4, with “control. The inhibition rate of cell growth was calculated by the following formula: Cell inhibition rate %=1−(OD experimental group−OD blank group)/(OD negative group−OD blank group)*100%” for “control.”
as §5

Assay [4] concerns wild type BaF3. The assay can be described thus: Growth inhibition of wild type BaF3 cells (broad-spectrum toxicity). To be noted: Mus musculus, BaF3, 48 h, MTS, Table 12. The procedure: as §6, §2, §3
as §4, with “control. The inhibition rate of cell growth was calculated by the following formula: Cell inhibition rate %=1−(OD experimental group−OD blank group)/(OD negative group−OD blank group)*100%” for “control.”
as §5

Consider `CCOc1cc(C(=O)N2CCC(N3CCN(C)CC3)CC2)ccc1Nc1nc(Nc2ccccc2SC(C)C)c2c(ccn2C)n1` [IIB-5], for which the concentration for half-maximal inhibition (IC50) was approximately 2720 nM in assay [1], approximately 2780 nM in assay [2], approximately 1370 nM in assay [3] and approximately 2870 nM in assay [4].

For `COc1cc(N2CCN(C)CC2)ccc1Nc1nc(Nc2ccccc2S(C)(=O)=O)c2c(ccn2C)n1` [IIC-1], the IC50 in assay [1] was 3530 nM; in assay [2], approximately 5890 nM; in assay [3] it was 5120 nM; in assay [4], approximately 8670 nM.

`COc1cc(N2CCC(N3CCN(C)CC3)CC2)ccc1Nc1nc(Nc2ccccc2S(C)(=O)=O)c2c(ccn2C)n1` [IIC-2]: the IC50 in assay [1] is 1510 nM; in assay [2], approximately 3510 nM; in assay [3], approximately 3460 nM; in assay [4], 5050 nM.

Consider `Cn1ccc2nc(Nc3ccc(N4CCC(O)CC4)cc3)nc(Nc3ccccc3S(C)(=O)=O)c21` [IIC-3], for which the IC50 was 8290 nM in assay [1], 8990 nM in assay [2], 11800 nM in assay [3] and approximately 10600 nM in assay [4].

For `Cn1ccc2nc(Nc3ccc(S(N)(=O)=O)cc3)nc(Nc3ccccc3S(C)(=O)=O)c21` [IIC-4], the concentration for half-maximal inhibition (IC50) in assay [1] was more than 10000 nM; in assay [2], 28200 nM; in assay [3], more than 10000 nM; in assay [4], more than 10000 nM.

Consider `CN1CCN(c2ccc(Nc3nc(Nc4ccccc4S(C)(=O)=O)c4c(ccn4C)n3)cc2)CC1` [IIC-5], for which the IC50 in assay [1] was approximately 3240 nM; in assay [2], 4410 nM; in assay [3] it was 3780 nM; in assay [4], approximately 7730 nM.

Turning to `CCOc1cc(N2CCC(O)CC2)ccc1Nc1nc(Nc2ccccc2S(C)(=O)=O)c2c(ccn2C)n1` [IIC-6], the half-inhibitory concentration (IC50) in assay [1], in assay [2], in assay [3] and in assay [4] was more than 10000 nM each time.

In the case of `COc1cc(N2CCN(C)CC2)ccc1Nc1nc(Nc2ccccc2S(=O)(=O)C(C)C)c2c(ccn2C)n1` [IID-1], the IC50 in assay [1] is 546 nM; in assay [2] it was approximately 2960 nM; in assay [3] it was 2260 nM; in assay [4], approximately 8180 nM.

For the compound `COc1cc(N2CCC(N3CCN(C)CC3)CC2)ccc1Nc1nc(Nc2ccccc2S(=O)(=O)C(C)C)c2c(ccn2C)n1` [IID-2], the IC50 in assay [1] was 330 nM; in assay [2] it was 391 nM; in assay [3], 829 nM; in assay [4] it was 2910 nM. Besides, the targeting selectivity entry in assay [1] (ratio of IC50 between wild-type BaF3 and ALK transformed BaF3 cells) is recorded as “good targeting selectivity”.

With `CC(C)S(=O)(=O)c1ccccc1Nc1nc(Nc2ccc(N3CCC(O)CC3)cc2)nc2ccn(C)c12` [IID-3], the concentration for half-maximal inhibition (IC50) in assay [1] was 2160 nM; in assay [2], 6650 nM; in assay [3] it was 6990 nM; in assay [4] it was more than 10000 nM.

Consider `CC(C)S(=O)(=O)c1ccccc1Nc1nc(Nc2ccc(S(N)(=O)=O)cc2)nc2ccn(C)c12` [IID-4], for which the half-maximal inhibitory concentration (IC50) in assay [1] is approximately 3290 nM; in assay [2] it was approximately 6440 nM; in assay [3] it was approximately 6350 nM; in assay [4], 7540 nM.

Take `CC(C)S(=O)(=O)c1ccccc1Nc1nc(Nc2ccc(N3CCN(C)CC3)cc2)nc2ccn(C)c12` [IID-5]: the IC50 in assay [1] is approximately 1130 nM; in assay [2], approximately 1120 nM; in assay [3] it was approximately 2580 nM; in assay [4], approximately 7940 nM.

Turning to `CCOc1cc(N2CCC(O)CC2)ccc1Nc1nc(Nc2ccccc2S(=O)(=O)C(C)C)c2c(ccn2C)n1` [IID-6], the 50% inhibitory concentration (IC50) was 1600 nM in assay [1], approximately 3000 nM in assay [2], approximately 3130 nM in assay [3] and more than 10000 nM in assay [4].

In the case of `CCOc1cc(C(=O)N2CCC(N3CCN(C)CC3)CC2)ccc1Nc1nc(Nc2ccccc2S(=O)(=O)C(C)C)c2c(ccn2C)n1` [IID-7], the half-maximal inhibitory concentration (IC50) in assay [1] is 783 nM; in assay [2], approximately 2780 nM; in assay [3], approximately 982 nM; in assay [4] it was approximately 2580 nM.

For the compound `Cc1cc(Nc2nc(Nc3ccccc3S(=O)(=O)C(C)C)c3c(ccn3C)n2)c(OC(C)C)cc1C1CCN(C)CC1` [IID-8], the concentration for half-maximal inhibition (IC50) is 1760 nM in assay [1], 4770 nM in assay [2], approximately 3460 nM in assay [3] and approximately 8380 nM in assay [4].

As to `COc1cc(C2CCN(C)CC2)c(C)cc1Nc1nc(Nc2ccccc2S(=O)(=O)C(C)C)c2c(ccn2C)n1` [IID-9], the IC50 in assay [1] was 2240 nM; in assay [2], approximately 2880 nM; in assay [3], 4740 nM; in assay [4] it was approximately 8300 nM.

`COC(=O)c1ccccc1Nc1nc(Nc2ccc(N3CCN(C)CC3)cc2OC)nc2ccn(C)c12` [IIG-1]: the half-inhibitory concentration (IC50) stood at 2370 nM in assay [1], 3440 nM in assay [2], 4870 nM in assay [3] and 5170 nM in assay [4].

As for `COC(=O)c1ccccc1Nc1nc(Nc2ccc(N3CCC(N4CCN(C)CC4)CC3)cc2OC)nc2ccn(C)c12` [IIG-2], the IC50 was approximately 3880 nM in assay [1], 3730 nM in assay [2], 4890 nM in assay [3] and approximately 7940 nM in assay [4].

With `COC(=O)c1ccccc1Nc1nc(Nc2ccc(N3CCC(O)CC3)cc2)nc2ccn(C)c12` [IIG-3], the half-inhibitory concentration (IC50) in assay [1] stood at 4260 nM; in assay [2], 2790 nM; in assay [3], 3180 nM; in assay [4], 5040 nM.

Turning to `COC(=O)c1ccccc1Nc1nc(Nc2ccc(C(=O)N3CCC(N4CCN(C)CC4)CC3)cc2OC)nc2ccn(C)c12` [IIG-4], the IC50 in assay [1] was approximately 1330 nM; in assay [2], 3950 nM; in assay [3], 4210 nM; in assay [4], 4870 nM.

With `COC(=O)c1cccc(Nc2nc(Nc3ccc(N4CCN(C)CC4)cc3OC)nc3ccn(C)c23)c1` [IIH-1], the IC50 is 1620 nM in assay [1], 1840 nM in assay [2], 1750 nM in assay [3] and 4940 nM in assay [4].

For `COC(=O)c1cccc(Nc2nc(Nc3ccc(N4CCC(O)CC4)cc3)nc3ccn(C)c23)c1` [IIH-2], the IC50 in assay [1] was 1970 nM; in assay [2], 1810 nM; in assay [3], 4470 nM; in assay [4], 2830 nM.

In the case of `COc1cc(N2CCN(C)CC2)ccc1Nc1nc(NCc2ccccc2SC)c2c(ccn2C)n1` [III-1], the IC50 in assay [1] was approximately 1360 nM; in assay [2], 1690 nM; in assay [3], approximately 2740 nM; in assay [4] it was approximately 2780 nM.

For the compound `CSc1ccccc1CNc1nc(Nc2ccc(N3CCC(O)CC3)cc2)nc2ccn(C)c12` [III-2], the concentration for half-maximal inhibition (IC50) in assay [1], in assay [2], in assay [3] and in assay [4] was more than 10000 nM each time.

Consider `CSc1ccccc1CNc1nc(Nc2ccc(S(N)(=O)=O)cc2)nc2ccn(C)c12` [III-3], for which the IC50 in assay [1] was 3200 nM; in assay [2] it was 4000 nM; in assay [3] it was 3710 nM; in assay [4] it was approximately 3340 nM.

On to `COc1cc(N2CCN(C)CC2)ccc1Nc1nc(NCc2ccccc2SC(C)C)c2c(ccn2C)n1` [IIJ-1], for which the 50% inhibitory concentration (IC50) in assay [1] is approximately 865 nM; in assay [2], 544 nM; in assay [3] it was 627 nM; in assay [4], approximately 911 nM.

Regarding `CC(C)Sc1ccccc1CNc1nc(Nc2ccc(N3CCC(O)CC3)cc2)nc2ccn(C)c12` [IIJ-2], the 50% inhibitory concentration (IC50) in assay [1] is 1710 nM; in assay [2] it was 1610 nM; in assay [3] it was 1610 nM; in assay [4] it was approximately 2860 nM.

Source of the values: patent publication US10508118B2, “Pyrimidopyrrole compounds, method for preparing the same, pharmaceutical compositions comprising the same and uses thereof” (Xiamen University, priority 2015, dated 2019).
